The subject of data set [1] is Respiratory Syncytial Virus. Put plainly: In vitro screening for activity against RSV (tetrazolium-based colorimetric assay, protection against viral cytopathology). Type of data set: cell-based. Conditions: for EC50: human respiratory syncytial virus, 168 h, read-out: Activity (converted). An excerpt:
The percent protection against cytopathology caused by viruses (antiviral activity or EC50) achieved by tested compounds and their cytotoxicity (CC50) are both calculated from dose-response curves. The selectivity of the antiviral effect is represented by the selectivity index (SI), calculated by dividing the CC50 (cytotoxic dose for 50% of the cells) by the EC50 (antiviral activity for 50% of the cells). The tables in the above experimental part list the category to which each of the prepared compounds belong: Compounds belonging to activity category “A” have a pEC50 (−log of EC50 when expressed in molar units) equal to or more than 7. Compounds belonging to activity category “B” have a pEC50 value between 6 and 7.
Automated tetrazolium-based colorimetric assays were used for determination of EC50 and CC50 of test compounds. Flat-bottom, 96-well plastic microtiter trays were filled with 180 μl of Eagle's Basal Medium, supplemented with 5% FCS (0% for FLU) and 20 mM Hepes buffer. Subsequently, stock solutions (7.8× final test concentration) of compounds were added in 45 μl volumes to a series of triplicate wells so as to allow simultaneous evaluation of their effects on virus- and mock-infected cells. Five five-fold dilutions were made directly in the microtiter trays using a robot system. Untreated virus controls, and HeLa cell controls were included in each test. Approximately 100 TCID50 of Respiratory Syncytial Virus was added to two of the three rows in a volume of 50 μl. The same volume of medium was added to the third row to measure the cytotoxicity of the compounds at the same concentrations as those used to measure the antiviral activity. After two hours of incubation, a suspension (4×10^5 cells/ml) of HeLa cells was added to all wells in a volume of 50 μl. The cultures were incubated at 37° C. in a 5% CO2 atmosphere. Seven days after infection the cytotoxicity and the antiviral activity was examined spectrophotometrically. To each well of the microtiter tray, 25 μl of a solution of MTT (3-(4,5-dimethylthiazol-2-yl)-2,5-diphenyltetrazolium bromide) was added. The trays were further incubated at 37° C. for 2 hours, after which the medium was removed from each cup. Solubilization of the formazan crystals was achieved by adding 100 μl 2-propanol. Complete dissolution of the formazan crystals were obtained after the trays have been placed on a plate shaker for 10 min. Finally, the absorbances were read in an eight-channel computer-controlled photometer (Multiskan MCC, Flow Laboratories) at two wavelengths (540 and 690 nm). The absorbance measured at 690 nm was automatically subtracted from the absorbance at 540 nm, so as to eliminate the effects of non-specific absorption.
The percent protection against cytopathology caused by viruses (antiviral activity or EC50) achieved by tested compounds and their cytotoxicity (CC50) were both calculated from dose-response curves. The selectivity of the antiviral effect is represented by the selectivity index (SI), calculated by dividing the CC50 (cytotoxic dose for 50% of the cells) by the EC50 (antiviral activity for 50% of the cells).

The mark [2] stands for this setting: Table 1, RSV in HeLa cells, MTT, seven days after infection, pEC50 = -log of EC50 in molar units.
Where [3] appears, read: Table 5b, RSV in HeLa cells, MTT, seven days after infection, pEC50 = -log of EC50 in molar units.
Setting [4] is: Table 6, numeric activity values, pEC50 (−log of EC50 in molar units).

55 compounds from patent publication US8044073B2, “Aminobenzimidazoles and benzimidazoles as inhibitors of respiratory syncytial virus replication” (Tibotec Pharmaceuticals, priority 2003, dated 2011) can be followed below.

Like-named read-outs stand apart in the source and are kept apart here. Some results are limits rather than exact numbers.

Turning to `Cc1ccc(O)c(Cn2c(N)nc3ccc(CNc4cccc(OC(F)(F)F)c4)cc32)n1` [Compound 4, 2-{2-Amino-6-[(3-trifluoromethoxyphenylamino)-methyl]-benzoimidazol-1-ylmethyl}-6-methyl-pyridin-3-ol], the melting point (in general, the temperature, or range, at which the solid turns liquid) worked out at 156 °C. For the same compound, the EC50 in data set [1] (setting [2]) was 2.51 nM.

In turn, `CC(=O)O.Cc1ccc(O)c(Cn2c(N)nc3ccc(CNc4ccccc4C)cc32)n1` [Compound 8, 2-[2-Amino-6-(o-tolylamino-methyl)-benzoimidazol-1-ylmethyl]-6-methyl-pyridin-3-ol acetic acid salt] registered a melting point of 120 °C. Besides, the EC50 in data set [1] (setting [2]) is 3.16 nM.

Consider `Cc1ccc(CCCO)c(NCc2ccc3nc(N)n(Cc4nc(C)ccc4O)c3c2)c1` [Compound 90, 2-(2-amino-6-{[2-(3-hydroxy-propyl)-5-methyl-phenylamino]-methyl}-benzimidazol-1-ylmethyl)-6-methylpyridin-3-ol], for which the melting point amounted to 248 °C. For the same compound, in data set [1] (setting [2]), the EC50 was 0.0316 nM.

On to `Cc1ccc(CCCO)c(NCc2ccc3nc(N)n(Cc4cccc(Br)n4)c3c2)c1` [Compound 212], for which, in data set [1] (setting [3]), the Activity was found to be 7.5.

On to `Cc1ccc(CCCO)c(NCc2ccc3nc(N)n(Cc4cccc5cccnc45)c3c2)c1` [Compound 214], for which the Activity in data set [1] (setting [3]) is given as 7.3.

As to `Cc1ccc(CCCO)c(NCc2ccc3nc(N)n(Cc4nc(C)c(C)nc4C)c3c2)c1` [Compound 218], the Activity in data set [1] (setting [3]) is given as 6.1.

As for `Cc1ccc(CCCO)c(NCc2ccc3nc(N)n(Cc4ccc(F)cc4)c3c2)c1` [Compound 219], the Activity in data set [1] (setting [3]) stood at 5.3.

For the compound `Nc1nc2ccc(CO)cc2n1Cc1cccc2cccnc12` [Compound 222, (2-amino-3-quinolin-8-ylmethyl-3H-benzoimidazol-5-yl)-methanol], the EC50 in data set [1] (setting [3]) is 39800 nM.

`Cc1cccc(N(CCCO)Cc2ccc3nc(N)n(Cc4cccc5cccnc45)c3c2)c1` [Compound 225] yielded an Activity in data set [1] (setting [3]) below 4.

For `Cc1ccc(CCCO)c(NCc2ccc3nc(N)n(Cc4cccc(Br)n4)c3c2)c1` [Compound 228], in data set [1] (setting [3]), the Activity is below 4.

`COc1ccc(C)nc1Cn1c(N)nc2ccc(CNc3cc(C)ccc3CCCO)cc21` [Compound 234] came in with an Activity in data set [1] (setting [3]) below 4.

In data set [1] (setting [3]), `Cc1ccc(CCCO)c(NCc2ccc3nc(N)n(Cc4cccc5c4ncn5C)c3c2)c1` [Compound 235] registered an Activity below 4.

Turning to `Cc1ccc(O)c(Cn2cnc3cc(CNCCCC4CCC(=O)N4)ccc32)n1` (stereo not shown) [Compound 241], the Activity in data set [1] (setting [4]) stood at 4.5.

`Cc1cccc(C(=O)Nc2ccc3c(c2)ncn3Cc2nc(C)ccc2O)c1` [Compound 242]: the Activity in data set [1] (setting [4]) came to 4.2.

As to `Cc1ccc(O)c(Cn2cnc3cc(CNCCc4cccn4C)ccc32)n1` [Compound 243], the Activity in data set [1] (setting [4]) was determined as 4.2.

`Cc1ccc(O)c(Cn2cnc3cc(NC(=O)Cc4ccccc4)ccc32)n1` [Compound 244] registered an Activity in data set [1] (setting [4]) of 4.2.

In turn, `Cc1ccc(O)c(Cn2cnc3cc(NC(=O)C4CCN(CCN)CC4)ccc32)n1` [Compound 245] registered an Activity in data set [1] (setting [4]) of 4.2.

Consider `Cc1ccc(O)c(Cn2cnc3cc(CO)ccc32)n1` [Compound 246], for which the Activity in data set [1] (setting [4]) is recorded as below 4.0.

Regarding `Cc1ccc(O)c(Cn2cnc3ccc(CO)cc32)n1` [Compound 247], in data set [1] (setting [4]), the Activity is on record as below 4.0.

The compound `Cc1ccc(O)c(Cn2cnc3cc(C=Cc4ccccc4)ccc32)n1` [Compound 249] had an Activity in data set [1] (setting [4]) below 4.0.

In data set [1] (setting [4]), `Cc1ccc(O)c(Cn2cnc3cc(CCc4ccccc4)ccc32)n1` [Compound 250] showed an Activity below 4.0.

Turning to `Cc1ccc(O)c(Cn2cnc3cc(C=CC#N)ccc32)n1` [Compound 252], in data set [1] (setting [4]), the Activity was below 4.0.

As for `Cc1ccc(O)c(Cn2cnc3cc(CNCCc4ccccc4)ccc32)n1` [Compound 253], the Activity in data set [1] (setting [4]) is below 4.0.

In data set [1] (setting [4]), `Cc1ccc(O)c(Cn2cnc3cc(CNCCN(C)C)ccc32)n1` [Compound 255] displayed an Activity below 4.0.

Turning to `Cc1ccc(O)c(Cn2cnc3cc(CNCCCN4CCOCC4)ccc32)n1.Cl` [Compound 258], the Activity in data set [1] (setting [4]) is below 4.0.

`COCCCNCc1ccc2c(c1)ncn2Cc1nc(C)ccc1O` [Compound 260] gave an Activity in data set [1] (setting [4]) below 4.0.

For the compound `Cc1ccc(O)c(Cn2cnc3cc(CNC4CCNCC4)ccc32)n1.Cl` [Compound 262], in data set [1] (setting [4]), the Activity is on record as below 4.0.

`Cc1cccc(NCc2ccc3c(c2)ncn3Cc2nc(C)ccc2O)c1` [Compound 265]: the Activity in data set [1] (setting [4]) is given as below 4.0.

Take `Cc1ccc(O)c(Cn2cnc3cc(NC(=O)c4ccccc4)ccc32)n1` [Compound 266]: in data set [1] (setting [4]), the Activity is given as below 4.0.

`Cc1ccc(O)c(Cn2cnc3cc(NC(=O)C4CCNCC4)ccc32)n1` [Compound 267] gave an Activity in data set [1] (setting [4]) below 4.0.

`COCCNCc1ccc2c(c1)ncn2Cc1nc(C)ccc1O` [Compound 269] gave an Activity in data set [1] (setting [4]) below 4.0.

Take `Cc1ccc(O)c(Cn2cnc3cc(CNCc4ccncc4)ccc32)n1` [Compound 270]: the Activity in data set [1] (setting [4]) was below 4.0.

In the case of `Cc1ccc(O)c(Cn2cnc3cc(CNCc4ccco4)ccc32)n1` [Compound 271], the Activity in data set [1] (setting [4]) is below 4.0.

As to `Cc1ccc(O)c(Cn2cnc3cc(CNCCCc4ccccc4)ccc32)n1` [Compound 272], in data set [1] (setting [4]), the Activity is recorded as below 4.0.

Consider `Cc1ccc(O)c(Cn2cnc3cc(C(O)c4ccccc4)ccc32)n1.O=C(O)C(=O)O` (stereo not shown) [Compound 274], for which the Activity in data set [1] (setting [4]) is below 4.0.

For `Cc1ccc(O)c(Cn2cnc3ccc(NC(=O)Cc4ccccn4)cc32)n1` [Compound 276], the Activity in data set [1] (setting [4]) is on record as below 4.0.

In data set [1] (setting [4]), `Cc1ccc(O)c(Cn2cnc3ccc(NC(=O)CCc4ccccc4)cc32)n1` [Compound 277] showed an Activity below 4.0.

Consider `Cc1ccc(O)c(Cn2cnc3ccc(NC(=O)c4cccnc4)cc32)n1` [Compound 278], for which, in data set [1] (setting [4]), the Activity is below 4.0.

Compound `Cc1ccc(O)c(Cn2cnc3cc(NC(=O)c4cccnc4)ccc32)n1` [Compound 279] gave an Activity in data set [1] (setting [4]) below 4.0.

On to `Cc1ccc(O)c(Cn2cnc3cc(NC(=O)CCc4ccccc4)ccc32)n1` [Compound 280], for which, in data set [1] (setting [4]), the Activity is on record as below 4.0.

For `Cc1ccc(O)c(Cn2cnc3cc(NC(=O)Cc4ccccn4)ccc32)n1` [Compound 281], the Activity in data set [1] (setting [4]) is below 4.0.

Turning to `CC(=O)c1cccc(NCc2ccc3ncn(Cc4nc(C)ccc4O)c3c2)c1` [Compound 282], the Activity in data set [1] (setting [4]) is below 4.0.

Regarding `Cc1ccc(O)c(Cn2cnc3ccc(CNc4cccc(C)c4C)cc32)n1` [Compound 284], in data set [1] (setting [4]), the Activity was below 4.0.

With `Cc1ccc(O)c(Cn2cnc3ccc(CNc4ccccc4)cc32)n1` [Compound 285], in data set [1] (setting [4]), the Activity is on record as below 4.0.

For `CC(=O)c1cccc(NCc2ccc3c(c2)ncn3Cc2nc(C)ccc2O)c1` [Compound 286], in data set [1] (setting [4]), the Activity is below 4.0.

`Cc1ccc(O)c(Cn2cnc3cc(CNc4cccc(Br)c4)ccc32)n1` [Compound 287]: the Activity in data set [1] (setting [4]) is listed as below 4.0.

In the case of `Cc1ccc(O)c(Cn2cnc3cc(CNc4cccc(Cl)c4)ccc32)n1` [Compound 288], the Activity in data set [1] (setting [4]) is reported as below 4.0.

The compound `Cc1cc(C)cc(NCc2ccc3c(c2)ncn3Cc2nc(C)ccc2O)c1` [Compound 289] gave an Activity in data set [1] (setting [4]) below 4.0.

In data set [1] (setting [4]), `Cc1ccc(O)c(Cn2cnc3cc(CNc4cc(Cl)cc(Cl)c4)ccc32)n1` [Compound 290] returned an Activity below 4.0.

`Cc1ccc(O)c(Cn2cnc3cc(CNc4cccc5cccnc45)ccc32)n1` [Compound 291] came in with an Activity in data set [1] (setting [4]) below 4.0.

Compound `Cc1ccc(O)c(Cn2cnc3cc(CNc4cccc(C#N)c4)ccc32)n1` [Compound 292] came in with an Activity in data set [1] (setting [4]) below 4.0.

As to `Cc1ccc(O)c(Cn2cnc3cc(CNc4cccc(F)c4)ccc32)n1` [Compound 293], the Activity in data set [1] (setting [4]) is below 4.0.

`CCc1cccc(NCc2ccc3c(c2)ncn3Cc2nc(C)ccc2O)c1` [Compound 294]: the Activity in data set [1] (setting [4]) is reported as below 4.0.

Compound `Cc1ccc(O)c(Cn2cnc3cc(CNc4cccc(C)c4C)ccc32)n1` [Compound 295] returned an Activity in data set [1] (setting [4]) below 4.0.

In data set [1] (setting [4]), `Cc1ccc(O)c(Cn2cnc3cc(CNc4ccccc4)ccc32)n1` [Compound 296] displayed an Activity below 4.0.
